# Laboratory results: patent US7595313B2, “Nitric oxide donating diuretic compounds, compositions and methods of use” (NicOx, S.A., priority 2005, dated 2009)
# Assays:
# Male Wistar rats = test: Determination of the diuresis (urine volume over 6 hours after oral dosing); format: in vivo, rat; settings: male Wistar rats, 6 hours, mean ± SEM, n=6 or 7; for Urine collected in 6 hours (mL) (3 mg/kg): p.o. 3 mg/kg in 0.5% Methocel
# Method in brief: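 Male Wistar rats (180-200 g) in metabolic cages, fasted 18 h, water withdrawn 90 min before dosing. Compounds in 0.5% Methocel given p.o. at 30 or 3 mg/kg; urine volume collected over 6 h. Mean ±SEM, n=6 or 7.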
# [1] = system: isolated rat aorta precontracted with phenylephrine; test: In vitro relaxant effect in rat aorta
# Description: The ability of Example 46b to relax isolated rat aorta precontracted with phenylephrine (1 μM) was studied. Example 46b was an efficacious relaxant agent in the rat aorta with an EC50 value of ˜7 μM. The vasorelaxant response elicited by Example 46b was abolished in the presence of ODQ, a potent and selective inhibitor of nitric oxide (NO)-sensitive guanylyl cyclase.
# Dahl salt sensitive rats = test: Blood pressure determination under in vivo conditions in the Dahl salt sensitive rat; settings: Dahl salt sensitive rats on high salt (8%) diet, gavage twice a day, 30 mg/kg HCT equivalent, telemetry, FIG. 1
# Description: (§1) The effect of subchronic administration of Example 1c and hydrochlorothiazide (HCT) on blood pressure was assessed in telemeterized male Dahl salt sensitive rats (5-6 weeks old; 125-150 g) fed a high salt (8%) diet for 4 weeks. Compounds were administered twice a day for 7 eight days via gavage at 30 mg/kg HCT equivalent in a 0.5% methylcellulose vehicle. Blood pressure was continuously monitored by telemetry and reported as a change in mean arterial blood pressure (MABP) over a 24 h period.
# [2] = system: Spontaneously Hypertensive rats (SHR); test: Blood pressure determination under in vivo conditions in the Spontaneously Hypertensive rat; settings: gavage twice a day, 30 mg/kg HCT equivalent, telemetry, FIG. 2
# Description: as §1, with “17b” for “1c”, “Spontaneously Hypertensive” for “Dahl salt sensitive”, “(SHR; 9-10” for “(5-6”, “250-300 g).” for “125-150 g) fed a high salt (8%) diet for 4 weeks.”
melting point [°C],"EC50 ([1]; Rattus norvegicus, aortic rings precontracted with phenylephrine (1 μM), relaxation as % of maximum by papaverine) [µM]",SMILES,Urine collected in 6 hours (mL) (3 mg/kg) (Male Wistar rats),"vasorelaxant response in the presence of ODQ ([1]; ODQ, inhibitor of NO-sensitive guanylyl cyclase, rat aorta precontracted with phenylephrine (1 μM))",reductions in blood pressure (mean arterial blood pressure) during the treatment period (Dahl salt sensitive rats),Urine collected in 6 hours (mL) (30 mg/kg) (Male Wistar rats; p.o. 30 mg/kg in 0.5% Methocel),"reductions in blood pressure (mean arterial blood pressure) during the treatment period, larger than with HCT [2]"
120 to 123,~7,"NS(=O)(=O)c1cc2c(cc1Cl)NCN(CCCCCO[N+](=O)[O-])S2(=O)=O [Example 46b, 2H-1,2,4-Benzothiadiazine-7-sulfonamide, 6-chloro-3,4-dihydro-2-[5-(nitrooxy)pentyl]-, 1,1-dioxide]",7.3 ± 0.7,abolished,,,
158 to 161,,"NS(=O)(=O)c1cc2c(cc1Cl)NC(CCCCCO[N+](=O)[O-])NS2(=O)=O (stereo not shown) [Example 1c, 2H-1,2,4-Benzothiadiazine-7-sulfonamide, 6-chloro-3,4-dihydro-3-[5-(nitrooxy)pentyl]-, 1,1-dioxide]",6.6 ± 0.4,,approximately 5 mm Hg,7.6 ± 0.5,
171 to 179,,"NS(=O)(=O)c1cc2c(cc1Cl)NC(CCCCO[N+](=O)[O-])NS2(=O)=O (stereo not shown) [Example 17b, 2H-1,2,4-Benzothiadiazine-7-sulfonamide, 6-chloro-3,4-dihydro-3-[4-(nitrooxy)butyl]-, 1,1-dioxide]",,,,,5-6 mm Hg
